Measured values taken from paper PMC8238948, “Potent inhibitors of toxic alpha-synuclein identified via cellular time-resolved FRET biosensors” (NPJ Parkinson's Disease, 2021).
pEC50, pIC50: −log10 of the molar value. “Also recorded” adds a separate entry of the source.

What was measured:
[1] = molecular target: T1, αSN (15 μM monomeric αSN doped with 5% αSN PFF seeds) (Homo sapiens, UniProt P37840); assay: Seeded Thioflavin-T aggregation assay; format: biochemical; settings: 15 μM αSN monomer + 5% PFF; for pIC50: 37 °C, max ThT intensity
T1 construct: made in house; host or cells: Escherichia coli BL21(DE3), T7-7 plasmid
Experimental: Figure 11 and Supplementary Fig. 23 present results from a dose-response-seeded aggregation assay. Vehicle, control, and hit compounds were incubated with 15 µM αSN(m), doped with 5% freshly sonicated αSN PFF in PBS under mild agitation (Supplementary Fig. 23a). […] Titration of control and hit compounds were run in triplicate; representative traces of hit compounds are illustrated in Fig. 11a with a full summary of each titration detailed in Supplementary Fig. 23c–h. IC50 was determined for each compound by determining the max ThT intensity for each concentration (Fig. 11b).
Seeded ThT aggregation assay was performed using 15 μM monomeric αSN doped with 5% (0.75 μM sonicated αSN pre-formed fibril (PFF) seeds) in a 384-well plate under slow agitation (300 RPM) at 37 °C. a Control samples for the aggregation include PBS (black), αSN monomer (brown), 5% αSN PFF (red), and the 15 μM monomer+5% PFF mixture (orange). Dose-response curves were made with a titration of compounds. […] In contrast, RO and DEM both show potent effects relative to Baicalin and EGCG controls. BAY does have some response, but it lags behind other hit compounds. b Normalizing the initial peak in ThT data allows us to estimate an IC50 for each hit. […] Although there is a small trend with BAY, the data cannot be fit to resolve an IC50.
ThT (Sigma, product no. T3516) was dissolved in PBS buffer and was filtered through a 0.2-µm syringe filter to make a stock solution of 2.5 mM. Working ThT concentration was 20 µM. PFF seeds were produced via constant agitation of 1000 RPM at 37 °C (ThermoMixer-C, Eppendorf, Hauppauge, NY) of 500 µL of 350 µM αSN in PBS in a 2 mL tube for 5 days. PFFs were aliquoted and flash frozen and stored at −80 °C until further use. PFF seeds were rapidly thawed, diluted to 35 µM in PBS, and sonicated 120 pulses at 50% using a probe-tip sonicator following the established protocols. Master mix samples for each of the different ThT assays were prepared and dispensed in triplicate as 50 µL in 384-well flat, black-bottom polypropylene plates (PN 781209, Greiner Bio-One) and sealed with fluorescently transparent film. Conditions for non-seeded, seeded, and cell homogenate assays varied slightly.
Seeded ThT experiments were performed at a lower monomer concentration to preclude spontaneous αSN aggregation during the time course of the experiment. For both seeded and cell homogenate experiments, sample were prepared in PBS + 20 µM ThT with or without 15 µM αSN(m) +/− 5% PFF (0.75 µM). Additional control samples of 15 µM PFF and 0.75 µM PFF were also prepared. All empty wells were filled with PBS for a thermal sink and to help prevent evaporation. Assay plates were prepared as pre-cellular FRET dose response above. Dose response was done across 8 concentrations (10 nM to 50 µM). The assay was run at 37 °C with mild shaking (200 RPM) in a Cytation3 plate reader. The ThT fluorescence was monitored with excitation filter of 450 nm and emission filter of 490 nm. Readings were acquired every 20 min for a minimum of 24 h. Seeded ThT aggregation IC50 values were determined by first normalizing all ThT curves to the maximal signal at plateau for the αSN + 5% PFF + DMSO samples. The normalized fluorescence at each concentration was fit to the Hill equation to resolve an effective IC50 of seeded aggregation inhibition.

[2] = tested on: differentiated SH-SY5Y cells treated with sonicated human αSN PFF; assay: Differentiated SH-SY5Y cell model of αSN PFF pathology (pS129 immunoblot); format: cell-based; settings: 50 μM Baicalin, 200 nM human PFF, 48 h
Experimental: SH-SY5Y cells were differentiated using reduced serum (3%) media supplemented with 10 μM retinoic acid for 3 days and then changed to serum-free media supplemented with 10 ng/mL brain-derived neurotrophic factor for the remainder of the experiment. Stock αSN PFFs were diluted and sonicated as described previously. SH-SY5Y cultures were then treated with 200 nM PFF and PBS, DMSO, 1 μM drug compound (RO, BAY, or DEM), or 50 μM Baicalin. After 48 h, SH-SY5Y were washed with PBS and harvested in cold lysis buffer with protease and phosphatase inhibitors, as previously described. Approximately 15 μg of total protein was loaded onto a 4–20% Criterion TGX midi gel and probed using Syn1 (BD Biosciences, #610787; 1° 1:5000; 2° 1:10K) and pS^129 aSyn (abcam, ab59264; 1° 1:1000; 2° 1:5000) and a-tubulin (abcam, ab4074; 1° 1:1000; 2° 1:10K) page 19: Supplemental Figure 18. […] Differentiated SH-SY5Y cells were treated with PBS, vehicle (DMSO) or compounds with and without 200nM sonicated human αSN PFFs. […] These will be removed in subsequent densitometry analysis. (b) Replicates of PFF +/- compound treatment were ran for immunoblot analysis of pS129 immunoreactivity. (c) Densitometry analysis was performed using ImageLab from BioRad. Total pS129 signal (excluding the non- specific bands) was normalized to tubulin loading control. […] Quantification is normalized per lane to highlight change in the ratio of different species. Note, oligomers quantification is plotted relative to the right-y- axis. All statistical comparisons were to DMSO treatment using two-tailed t-test with * p<0.05; ** p<0.01; *** p<0.005.

[3] = molecular target: T2, αSN oligomers (Homo sapiens, UniProt P37840); assay: ThT content (β-sheet) of αSN oligomers after oligomerization assay; format: biochemical; settings: 70 μM compound (1:5 compound:monomer), 12 h oligomerization; vs DMSO
T2 construct: made in house; host or cells: Escherichia coli BL21(DE3), T7-7 plasmid
Experimental: To explore the presence of β-sheet content in these oligomers, an aliquot was removed prior to cross-linking, diluted into 100 μM ThT working solution, and ThT fluorescence was monitored to detect the presence of β-sheet. Supplementary Fig. 22 presents each sample ThT content normalized to the PFF signal. We observed an increased ThT content in the αSN oligomers (αS-O) that was not affected by DMSO (vehicle) treatment.
A 10-μL aliquot from each sample was taken and diluted with 290 μL ThT working solution (100 μM ThT in PBS) and dispensed into 3 wells of a 384-well, black opaque plate. Additional samples of PBS, αSN(m), and αSN PFF were used as controls. Plates were incubated at ambient temperature for 10 min and then fluorescence read at 450ex/490em on a Spectromax-i3x (Molecular Devices).
Supplemental Figure 22. Characterization of β-sheet content in αSN oligomers due to hit compound
After the 12-hour oligomerization assay aliquots of each sample were
removed and diluted in 100μM ThT and fluorescence read in triplicate (450ex/490em) in 384-well plates. The
ThT signal was normalized to a signal from previously frozen αSN PFF aliquots. After completion of the
PFF, green bar) and the ThT signal was not affected by DMSO (red bar). Oligomerization in the presence of
control compounds, EGCG and Baicalin, at 70μM (a sub-stoichiometric,1:5 compound: monomer ratio)
Our hit compounds RO, DEM, and BAY had differential effects with
both DEM and BAY resulting in increased ThT content and RO not producing a significant change relative to
(1 picture or pasted object on this page, not shown here)

[4] = tested on: inter-protomeric and intra-protomeric αSN FRET biosensors in HEK293 cells; assay: Pilot HTS of the LOPAC library, fluorescence lifetime (FLT) of cellular αSN FRET biosensors; format: cell-based, human; settings: 10 µM compound, 90 min; hit = FLT change >5 SD
Experimental: Prior to each pilot HTS, FLT and emission spectrum were measured to verify signal level, basal FRET, coefficient of variance (CV), and similarity index. For each HTS, cells were dispensed into compound plates—1536-well (10 µL/well)—and incubated with the compounds (10 µM) or dimethyl sulfoxide (DMSO; 1%) for 90 min. FLT measurements were acquired with the FLT-PR. After deconvolving the instrument response function, a single exponential fit was used to determine the FLT for both the αSN cellular FRET biosensor (τDA) and the donor-only control biosensor (τD). FRET efficiency was determined by Eq. 1. CV was determined from control plates (N = 384 wells).
Fluorescent compounds (FC) were flagged using a spectral similarity index filter, which evaluates the ratio of intensity from two bandwidths that span the donor emission spectrum and are excluded as potential false positives[45],[46],[49],[51],[66]. […] Compounds that changed FLT by >5 standard deviations (SD) were considered hits (Fig. 5, red data points).
On each day of screening, the compound plates were equilibrated to room temperature (RT; 25 °C). The cells were harvested from the 100-mm plates by incubating with TrypLE (Invitrogen) for 2 min, washed three times in PBS by centrifugation at 200 × g, and filtered using 70-μm cell strainers (BD Falcon). Cell viability prior to screen was assessed using a trypan blue assay and confirmed to be >80%. Cells were diluted to 1.5E6 cells/mL. Expression of GFP-αSN and the αSN biosensors were confirmed by fluorescence microscopy prior to each screen (EvosFL-Auto microscope, Thermo Fisher Scientific, USA). During screening, cells (50 μL/well for 384-well; 10 μL/well for 1536-well) were dispensed by a Multidrop Combi liquid dispenser (Thermo, Pittsburg, PA, USA) into the assay plates containing the compounds and allowed to incubate at RT for 90 min before recording with the FLT-PR or SUPR (both instruments manufactured by Fluorescence Innovations Inc., both owned and provided by Photonic Pharma LLC), as described previously[46].
Interfering compounds were flagged as potential false positives by a set of stringent FC filters based on spectral analysis of each well from the LOPAC screen[45],[46]. After removal of FCs, a histogram of the FLT distribution from all compounds in the screen was plotted and fit to a Gaussian curve to obtain the mean (µ) and SD (σ). A hit was defined as a compound that attenuated the FLT efficiency by >5σ relative to the mean µ (Supplementary Fig. 12).

[5] = tested on: SH-SY5Y cells overexpressing unlabeled wild-type (WT) αSN; assay: CytoTox-Glo cytotoxicity assay: rescue of αSN-induced cytotoxicity; format: cell-based, human
Experimental: Hit compounds were evaluated for rescue of αSN-induced cytotoxicity in using an SH-SY5Y neuroblastoma cell model of alpha-synucleinopathy[18],[69]–[72]. […] A seven-point CRC for RO, BAY, DEM, and Anle138b (positive control compound[41],[73]) was performed to determine IC50 for each compound. […]
Cell cytotoxicity was measured using the CytoTox-Glo (Promega Corporation) Luminescence Assay Kit. SH-SY5Y human neuroblastoma cells were plated at a density of 5 × 10^6 cells/plate in 100 mm plate (Corning) and transfected with unlabeled WT αSN or equivalent vector-only control for 24 h. The transfected cells were then plated at a density of 5000 cells/well in white solid 96-well plate (Corning) with a total volume of 100 μL, followed by treatment with hit compounds spanning a range of concentrations (0.1 nM to 100 μM), as well as DMSO-only controls, for another 48 h. After incubation, 50 μL of CytoTox-Glo Cytotoxicity Assay Reagent was added to all wells followed by mixing by orbital shaking and incubation in the dark for 15 min at RT. Luminescence readings were measured using a Cytation3 Cell Imaging Multi-Mode Reader luminometer (BioTek). After the first read, 50 μL of Lysis Reagent was added, incubated for 15 min at RT, and a second read performed. Total viable cellular luminance was determined by the difference between the first and second luminescence signal and total cellular viability is determined by normalizing to the no-treatment samples.

[6] = molecular target: T3, A53T αSN oligomer (inter-protomeric) FRET biosensor in HEK293 cells (Homo sapiens, UniProt P37840, A53T); assay: FLT dose response, A53T oligomer (inter-protomeric) FRET biosensor; format: cell-based; settings: 1 nM to 50 μM
T3 construct: In addition to full-length αSN fusion constructs, we observe both C-terminally and N-terminally truncated αSN species; expressed in transfected cells; host or cells: HEK293
Experimental: (§1) Hits from the pilot HTS of the LOPAC library were selected and dispensed into 384-well plates to verify reproducible and specific FLT trends using the WT and A53T oligomer (inter-protomeric) FRET biosensors. Figure 6 presents a subset of these dose-response curves for hit compounds RO, BAY, SB206553, and DEM, along with known control compound EGCG. […] Assay quality was determined by Z′ (Eq. 2) where a Z′ > 0.5 indicates good assay quality. Using EGCG as control compound and the hit DEM, we calculated Z′ value of 0.76 and 0.66, respectively, indicating excellent assay quality.
(§2) Fig. 6 FRET dose response of pilot HTS hits. A subset of hits were evaluated using both WT (a) and A53T (b) oligomer biosensor to verify both increased FLT (disrupting αSN–αSN interactions) and decreased FLT (tighter aggregation or remodeled oligomers).
(§3) Compounds were tested in a FLT dose-response assay. The compound was dissolved to 10 mM in DMSO, then serially diluted in 96-well mother plates. Each hit was re-screened for FLT dose response across eight concentrations (1 nM to 50 μM). Compounds (0.5 μL) were transferred from mother plates into assay plates using a Mosquito HV liquid handler (TTP Labtech Ltd, UK). The preparations for αSN FRET biosensors were carried out as above.

[7] = molecular target: T4, WT αSN oligomer (inter-protomeric) FRET biosensor in HEK293 cells (Homo sapiens, UniProt P37840); assay: FLT dose response, WT oligomer (inter-protomeric) FRET biosensor; format: cell-based; settings: 1 nM to 50 μM
T4 construct: In addition to full-length αSN fusion constructs, we observe both C-terminally and N-terminally truncated αSN species; expressed in transfected cells; host or cells: HEK293
Experimental: as §1, §2, §3

[8] = molecular target: T5, intra-protomeric αSN biosensor (GFP-αSN-RFP) in HEK293 cells (Homo sapiens, UniProt P37840); assay: FRET response on intra-protomeric αSN biosensor; format: cell-based; settings: 10 µM
T5 construct: In addition to full-length αSN fusion constructs, we observe both C-terminally and N-terminally truncated αSN species; expressed in transfected cells; host or cells: HEK293
Experimental: Hits were also evaluated with the intra-protomeric αSN and control, non-specific biosensors. […] The compounds RO, BAY, and DEM as well as the control EGCG each reduced FRET, indicating either reduction in oligomerization or expanded oligomer conformation. Tests of these compounds in two control biosensor systems (GFP/RFP at 1:8 and GFP-linker32-RFP; see Supplementary Fig. 13a, b, respectively) show no significant FRET change.
Fig. 7 FRET response to pilot HTS hits on intra-protomeric αSN biosensor. […] With both donor and acceptor XFP fused to one construct, this biosensor is sensitive to both oligomer formation as well as conformation. […] Experiments were performed with n = 3; *p < 0.05, **p < 0.01, ***p < 0.001, ns indicates no significant difference as determined by Student’s t test.

[9] = tested on: αSN oligomerization; parameters: method as in PMID 23604588; settings: read-out: apparent EC50, inhibition of αSN oligomerization; cited from earlier work

## O=C(O)[C@H]1O[C@@H](Oc2cc3oc(-c4ccccc4)cc(=O)c3c(O)c2O)[C@H](O)[C@@H](O)[C@@H]1O [Baicalin]
[1]
  pIC50: 6.41
[2]
  HMW pS129 signal: strong HMW pS^129 signal
  LMW oligomer pS129 fraction: significantly reduced
[3]
  ThT signal of αSN oligomers: complete loss of ThT signal

## O=C1Nc2cc(Br)ccc2/C1=C1/Nc2ccccc2/C1=N\O [Bio]
[4]
  identified as hit in the LOPAC screen: identified

## Cn1c(=O)c(-c2c(Cl)cccc2Cl)cc2cnc(Nc3ccc(N4CCOCC4)cc3)nc21 [PD173952]
[4]
  identified as hit in the LOPAC screen: identified

## N#C/C(=C\c1ccc(-c2cc(Cl)ccc2Cl)o1)C(=O)Nc1cccc2ncccc12 [AGK2]
[4]
  identified as hit in the LOPAC screen: identified

## SB206553
[5]; dose response, 48-h exposure
  rescue of αSN-induced cytotoxicity: no observed effect on cytotoxicity
[5]; three-dose assay
  rescue of toxicity in three-dose preliminary screen: no rescue of toxicity
[1]; titration up to 50 μM
  effect on seeded aggregation: no aggregation inhibition; also recorded: little to no effect on aggregation
[6]
  FLT trend in dose response: increasing FLT trend; also recorded: mild recovery of FLT
[7]
  FLT trend in dose response: increasing FLT trend; also recorded: mild recovery of FLT

## O=C(O[C@@H]1Cc2c(O)cc(O)cc2O[C@@H]1c1cc(O)c(O)c(O)c1)c1cc(O)c(O)c(O)c1 [EGCG]
[1]
  pIC50: 5.96
[6]
  FLT trend in dose response: reduced donor FLT
[3]
  ThT signal of αSN oligomers: complete loss of ThT signal
[7]
  FLT trend in dose response: reduced donor FLT
[8]
  change in intra-protomeric FRET: reduced FRET

## Brc1cccc(-c2cc(-c3ccc4c(c3)OCO4)[nH]n2)c1 [Anle138b]
[5]; Homo sapiens, SH-SY5Y, 72-h transfection, 48-h exposure to compound, seven-point CRC, read-out: EC50, protection of SH-SY5Y cells from αSN-induced death
  pEC50: 6.05
[9]
  pEC50: 5.55
